Measurements taken from the CheMixHub viscosity set.

Assay: xn = mol fraction of the nth substance listed

CCOCCO + CCCCO
viscosity [mPa·s]
Settings	298.15 K	303.15 K	308.15 K	313.15 K
101 kPa, x1 = 0.0837	2.434	–	–	–
101 kPa, x1 = 0.1706	2.312	–	–	–
101 kPa, x1 = 0.2606	2.206	–	–	–
101 kPa, x1 = 0.3541	2.113	–	–	–
101 kPa, x1 = 0.4513	2.035	–	–	–
101 kPa, x1 = 0.5523	1.984	–	–	–
101 kPa, x1 = 0.6574	1.949	–	–	–
101 kPa, x1 = 0.7669	1.925	–	–	–
101 kPa, x1 = 0.881	1.902	–	–	–
101.33 kPa, x1 = 0.1017	2.284	1.999	1.771	1.565
101.33 kPa, x1 = 0.2007	2.13	1.887	1.671	1.49
101.33 kPa, x1 = 0.2996	2.015	1.787	1.589	1.42
101.33 kPa, x1 = 0.4028	1.958	1.731	1.546	1.378
101.33 kPa, x1 = 0.5032	1.891	1.677	1.499	1.34
101.33 kPa, x1 = 0.6036	1.86	1.656	1.48	1.331
101.33 kPa, x1 = 0.6986	1.838	1.634	1.462	1.31
101.33 kPa, x1 = 0.8029	1.829	1.63	1.458	1.314
101.33 kPa, x1 = 0.9	1.822	1.629	1.462	1.309

CCOCCO + OCCOCCO
101 kPa
Settings	viscosity [mPa·s]
293.15 K, x1 = 0.0582	33.17
293.15 K, x1 = 0.0952	30.25
293.15 K, x1 = 0.2037	23.28
293.15 K, x1 = 0.3098	18.21
293.15 K, x1 = 0.4062	14.48
293.15 K, x1 = 0.4503	13.03
293.15 K, x1 = 0.5003	11.5
293.15 K, x1 = 0.5413	10.37
293.15 K, x1 = 0.5988	8.935
293.15 K, x1 = 0.6952	6.844
293.15 K, x1 = 0.8031	4.921
293.15 K, x1 = 0.9002	3.465
293.15 K, x1 = 0.9508	2.759
298.15 K, x1 = 0.0511	26.45
298.15 K, x1 = 0.1023	23.41
298.15 K, x1 = 0.2003	18.57
298.15 K, x1 = 0.2998	14.7
298.15 K, x1 = 0.3988	11.61
298.15 K, x1 = 0.4514	10.25
298.15 K, x1 = 0.4998	9.068
298.15 K, x1 = 0.5476	8.079
298.15 K, x1 = 0.5996	7.096
298.15 K, x1 = 0.6983	5.447
298.15 K, x1 = 0.7991	4.05
298.15 K, x1 = 0.882	3.061
298.15 K, x1 = 0.95	2.337
303.15 K, x1 = 0.0643	18.69
303.15 K, x1 = 0.0932	17.45
303.15 K, x1 = 0.2072	13.23
303.15 K, x1 = 0.3008	10.56
303.15 K, x1 = 0.4001	8.317
303.15 K, x1 = 0.4496	7.372
303.15 K, x1 = 0.4939	6.612
303.15 K, x1 = 0.5508	5.751
303.15 K, x1 = 0.5913	5.201
303.15 K, x1 = 0.701	3.93
303.15 K, x1 = 0.7959	3.051
303.15 K, x1 = 0.899	2.267
303.15 K, x1 = 0.9218	2.117

NCC(=O)NCC(=O)NCC(=O)O + O
viscosity [mPa·s]
Settings	298.15 K	303.15 K	308.15 K	313.15 K	318.15 K
100 kPa, x1 = 0.0008998	0.9044	0.8108	0.7322	0.6656	0.6079
100 kPa, x1 = 0.001798	0.9128	0.8191	0.7406	0.6738	0.6157
100 kPa, x1 = 0.002695	0.9213	0.8272	0.7481	0.6812	0.6229
100 kPa, x1 = 0.00359	0.9287	0.8347	0.7552	0.6885	0.6298
100 kPa, x1 = 0.004483	0.9364	0.8418	0.7623	0.6953	0.6366
100 kPa, x1 = 0.005375	0.9426	0.8482	0.7691	0.7018	0.6429
100 kPa, x1 = 0.006266	0.95	0.8548	0.7757	0.7082	0.6492
100 kPa, x1 = 0.007154	0.9566	0.8615	0.7818	0.7147	0.6552
101 kPa, x1 = 0.000199	0.8947	–	0.7233	–	0.5994
101 kPa, x1 = 0.000396	0.8988	–	0.7269	–	0.6027
101 kPa, x1 = 0.0006084	0.9032	–	0.7307	–	0.6058
101 kPa, x1 = 0.0007854	0.9075	–	0.7343	–	0.6087
101 kPa, x1 = 0.001106	0.9149	–	0.7403	–	0.6138
101 kPa, x1 = 0.001839	0.9325	–	0.7547	–	0.6255
101 kPa, x1 = 0.002563	0.9511	–	0.7694	–	0.637
101 kPa, x1 = 0.003356	0.9729	–	0.7857	–	0.6495
101 kPa, x1 = 0.0046	1.01	–	0.8123	–	0.6694

[Ba+2].[Cl-].[Cl-] + O
viscosity [mPa·s], 101.3 kPa
Settings	x1 = 0.0009	x1 = 0.0018	x1 = 0.00893	x1 = 0.0125	x1 = 0.0177	x1 = 0.02116	x1 = 0.02631
293.15 K	1.016	1.027	1.123	1.174	1.261	1.325	1.43
298.15 K	0.9041	0.9144	1.005	1.053	1.134	1.194	1.29
303.15 K	0.8105	0.8204	0.9062	0.9513	1.027	1.082	1.171
308.15 K	0.7315	0.7405	0.8219	0.8637	0.9352	0.9867	1.069
318.15 K	0.6068	0.6141	0.688	0.725	0.788	0.8328	0.9047

CCOCCO + CCCCCCCC
viscosity [mPa·s], 101.33 kPa
Settings	x1 = 0.0976	x1 = 0.1994	x1 = 0.3003	x1 = 0.4001	x1 = 0.5004	x1 = 0.5944	x1 = 0.6962	x1 = 0.7983	x1 = 0.8969
298.15 K	0.524	0.566	0.619	0.687	0.772	0.87	1.003	1.179	1.421
303.15 K	0.49	0.527	0.574	0.632	0.71	0.795	0.911	1.069	1.279
308.15 K	0.463	0.494	0.538	0.591	0.657	0.732	0.834	0.972	1.155
313.15 K	0.434	0.462	0.5	0.55	0.609	0.673	0.763	0.896	1.05
